We go through 17 molecules from patent US9353084B2, “2-amino 3,5,5-trifluoro-3,4,5,6-tetrahydropyridines as BACE1 inhibitors for treatment of Alzheimer's disease” (H. Lundbeck A/S, priority 2014, dated 2016).

The structures appear in SMILES notation. Where a name gives a salt, the structure may show the parent alone.

One data set deals with human BACE1 (Homo sapiens (Human), UniProt P56817). The data set is described as follows: BACE1 binding assay (SPA-based, radioligand displacement). To be noted: pH 4.5, Ki calculated from IC50. The procedure:
The binding assay was performed as SPA-based assay using a biotinylated form of human BACE1 recombinantly expressed and subsequently purified from Freestyle HEK293 cells. The binding assay was run in a 50 mM sodium acetate buffer, pH 4.5 containing 50 mM NaCl and 0.03% Tween-20 in white clear bottom 384 plates (Corning #3653). 10 nM (final concentration) radioligand ([^3H]—N-((1S,2R)-1-benzyl-3-cyclopropylamino-2-hydroxy-propyl)-5-(methanesulfonyl-methyl-amino)-N—((R)-1-phenyl-ethyl)-isophthalamide) (TRQ11569 purchased from GE Healthcare) was mixed with test compound at a given concentration, 6 nM (final concentration) human BACE1 and 25 μg Streptavidin coated PVT core SPA beads (RPNQ0007, GE Healthcare Life Sciences) in a total volume of 40 μl. Several concentrations of each test compound were tested in the assay for IC50 determination. The plates were incubated for one hour at room temperature and counted in a Wallac Trilux counter. Total and non-specific binding were determined using buffer and 1 μM (final concentration) of the high affinity BACE1 reference inhibitor (S)-6-[3-chloro-5-(5-prop-1-ynyl-pyridin-3-yl)-thiophen-2-yl]-2-imino-3,6-dimethyl-tetrahydro-pyrimidin-4-one, respectively. For each test compound, a IC50 value (the concentration mediating 50% inhibition of the specific binding of the radioligand) was determined from concentration-response curve and used to calculate the Ki from the equation Ki=IC50/(1+L/Kd), where L and Kd are the final concentration of the radioligand used in the assay and the dissociation constant of the radioligand, respectively. The Kd of the radioligand was determined from saturation binding experiments.

Another data set deals with Aβ40. The data set is described as follows: Assessment of Aβ40 levels in rat brain and plasma following BACE1 inhibition (ELISA). In kind it is in vivo. The settings on record: 30 mg/kg p.o., 3 hours post dose, vs vehicle. The procedure: (§1) Young adult Male Sprague Dawley rats of approximately 250 g weight were purchased from Charles River and received 0-30 mg/kg of vehicle (10% HP betaCD+1M MeSO4, pH 2.5) or test compounds (dissolved in vehicle) only by oral gavage (p.o). The compounds are dosed at a volume of 5 ml/kg. Cohorts of 5-10 animals were established for each treatment condition.
(§2) At T=180 minutes after initial dosing the animals were stunned and decapitated with a guillotine. Trunk-blood was sampled in EDTA coated tubes after decapitation of the animal. The blood was centrifuged at 2200 G at 4° C. for 15 minutes and the plasma was collected and frozen at −80° C. The blood was aliquoted for Aβ ELISA and DMPK analysis Immediately following sacrifice, the brain was extracted and split into 2 halves. The right hemibrains were snap frozen on dry ice and stored at −80° C. The left half was dissected; with the front forebrain taken for Aβ ELISA and the remainder used for DMPK analysis. These samples were also snap frozen on dry ice and stored at −80° C. until use for analysis.
The cortex samples were thawed slightly on wet ice before they were homogenized with a small volume dispersing instrument (T10 basic ULTRA-TURRAX®) which was set at speed 5 for approximately 5-7 sec. The tissue was processed in a 10 times volume of the weight, for example 100 mg of tissue was homogenized in 1000 μL of Homogenization buffer. Homogenization buffer: 50 ml Milli Q water+[…]+0.2% Diethylamin (DEA)+1 tablet of Complete Protease inhibitor cocktail+1 nM 4-(2-aminoethyl)benzenesulfonyl fluoride hydrochloride irreversible serine protease inhibitor (AEBSF).
After homogenization 450 μL aliquots of the samples are collected into a 1.5 ml Eppendorf tube and placed on wet ice, 0.5% NP-40 (50 ul) was added to all samples and then they were incubated on ice for 30 min. After which all samples were sonicated using an Ultrasonic homogenizer with 20 kHz homogeneous sound (SONOPLUS HD2070, Bandelin Electronic) 10 pulse set at 12-13% power to extract all the Aβ species. The samples were then centrifuged (Ole Dich 157 MPRF Micro centrifuge) at 20000 G for 20 minutes at 4° C. After centrifugation 285 μL of the supernatant was pipetted into 600 μL microtubes tubes and neutralized with 15 μL of 1M Tris-HCL buffer.
WAKO 294-62501 Human/Rat Abeta amyloid (40) kit was used for all ELISA analyses. 30 μL plasma samples or 30 μL of the cortex supernatants generated as described above were placed in 600 μL microtubes tubes on wet ice. To this 30 μL of 8M Urea (AppliChem A1049, 9025) are added to generate a 2-fold dilution. Both plasma and cortex supernatants are incubated on ice for 30 min. Standard rows were prepared from the standard peptide stock provided in the kit and standard diluent containing 1.6M Urea (200 μL 8M Urea+800 μL of standard diluent) and 0.8M Urea (400 μL 8M Urea+3600 μL Standard diluent). A serial 2-fold dilution of Aβ40 from 100 pmol/ml to 0 pmol/L was prepared for the assay.
After incubation with urea, all samples were further diluted by addition of 5 times standard diluent from the Kit. This was done by adding 240 μL Standard Diluent to 60 μL sample/urea mixture, which was then mixed well. 100 μL of each diluted sample was pipetted into designated wells of the ELISA plate in duplicates. The plate was then covered and incubated overnight at 4° C. The following day, the ELISA kit was brought to room temperature before use. The incubated plate was washed 5 times with the 20× washing solution diluted in Milli Q water. 100 μL HRP-conjugate was applied to each well, and the plate was covered and incubates at 4° C. for 1 hr. The wash was repeated again for 5 times. 100 μL 3,3′,5,5′-Tetramethylbenzidine (TMB) solution was applied to each well and the plate was covered and incubated in the dark at room temperature for 30 minutes. […]

Data set [1] can be described thus: Brain and plasma exposure in rats after oral dosing (DMPK analysis). The settings on record: male, Sprague Dawley, 30 mg/kg p.o., 3 hours post dose, rat, read-out: Brain/Plasma ratio. In kind it is in vivo. On the procedure: as §1, §2
Compounds 1, 5, 17, 18, and 24 were administered at doses of 10 or 30 mg/kg p.o. and brain and plasma samples were collected at 3 hours post dose and the following exposures and reductions in Aβ40 levels were measured as described above.

human BACE1, sequence (P56817 46-501): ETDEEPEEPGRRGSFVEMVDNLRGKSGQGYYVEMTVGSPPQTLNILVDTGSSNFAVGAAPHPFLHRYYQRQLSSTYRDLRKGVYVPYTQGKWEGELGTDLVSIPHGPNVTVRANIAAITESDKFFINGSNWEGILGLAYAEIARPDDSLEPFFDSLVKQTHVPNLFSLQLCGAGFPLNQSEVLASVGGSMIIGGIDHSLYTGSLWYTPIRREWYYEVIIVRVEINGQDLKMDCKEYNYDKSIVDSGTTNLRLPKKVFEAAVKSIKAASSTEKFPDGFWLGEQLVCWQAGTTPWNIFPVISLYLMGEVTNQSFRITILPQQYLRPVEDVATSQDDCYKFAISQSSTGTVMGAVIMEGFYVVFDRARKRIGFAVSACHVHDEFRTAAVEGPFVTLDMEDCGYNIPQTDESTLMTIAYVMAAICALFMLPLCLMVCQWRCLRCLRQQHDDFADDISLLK

Consider `C[C@]1(F)CC(F)(F)[C@@](C)(c2cc(NC(=O)c3ccc(F)cn3)ccc2F)N=C1N` [Compound 1, N-(3-((2R,5S)-6-amino-3,3,5-trifluoro-2,5-dimethyl-2,3,4,5-tetrahydropyridin-2-yl)-4-fluorophenyl)-5-fluoropicolinamide], for which the inhibition constant (Ki) at human BACE1 is 83 nM. Moreover, the “Aβ40 reduction, Brain Rat” value with Aβ40 (brain) is 56%. Also, the “Aβ40 reduction, Plasma Rat” value in the data set with Aβ40 (plasma) was found to be 41%. Moreover, in data set [1], the Kp at 3 h amounted to 0.62.

In the case of `Cc1nc(C(=O)Nc2ccc(F)c([C@@]3(C)N=C(N)[C@](C)(F)CC3(F)F)c2)co1` [Compound 34, N-(3-((2R,5R)-6-amino-3,3,5-trifluoro-2,5-dimethyl-2,3,4,5-tetrahydropyridin-2-yl)-4-fluorophenyl)-2-methyloxazole-4-carboxamide], the Ki on human BACE1 is 210 nM.

Regarding `Cc1nc(C(=O)Nc2ccc(F)c([C@@]3(C)N=C(N)[C@](C)(F)CC3(F)F)c2)no1` [Compound 35, N-(3-((2R,5R)-6-amino-3,3,5-trifluoro-2,5-dimethyl-2,3,4,5-tetrahydropyridin-2-yl)-4-fluorophenyl)-5-methyl-1,2,4-oxadiazole-3-carboxamide], at human BACE1, the inhibition constant Ki is 680 nM.

Take `C[C@@]1(F)CC(F)(F)[C@@](C)(c2cc(NC(=O)c3nccs3)ccc2F)N=C1N` [Compound 36, N-(3-((2R,5R)-6-amino-3,3,5-trifluoro-2,5-dimethyl-2,3,4,5-tetrahydropyridin-2-yl)-4-fluorophenyl)thiazole-2-carboxamide]: the inhibitory constant (Ki) at human BACE1 was 390 nM.

Turning to `Cn1cc(Br)nc1C(=O)Nc1ccc(F)c([C@@]2(C)N=C(N)[C@](C)(F)CC2(F)F)c1` [Compound 37, N-(3-((2R,5R)-6-amino-3,3,5-trifluoro-2,5-dimethyl-2,3,4,5-tetrahydropyridin-2-yl)-4-fluorophenyl)-4-bromo-1-methyl-1H-imidazole-2-carboxamide], the Ki on human BACE1 was 420 nM.

Turning to `Cc1cn(C)c(C(=O)Nc2ccc(F)c([C@@]3(C)N=C(N)[C@](C)(F)CC3(F)F)c2)n1` [Compound 38, N-(3-((2R,5R)-6-amino-3,3,5-trifluoro-2,5-dimethyl-2,3,4,5-tetrahydropyridin-2-yl)-4-fluorophenyl)-1,4-dimethyl-1H-imidazole-2-carboxamide], the Ki on human BACE1 is 1000 nM.

For `Cn1ccc(C(=O)Nc2ccc(F)c([C@@]3(C)N=C(N)[C@](C)(F)CC3(F)F)c2)n1` [Compound 39, N-(3-((2R,5R)-6-amino-3,3,5-trifluoro-2,5-dimethyl-2,3,4,5-tetrahydropyridin-2-yl)-4-fluorophenyl)-1-methyl-1H-pyrazole-3-carboxamide], on human BACE1, the Ki was 4800 nM.

As to `Cc1cc(C(=O)Nc2ccc(F)c([C@@]3(C)N=C(N)[C@](C)(F)CC3(F)F)c2)on1` [Compound 40, N-(3-((2R,5R)-6-amino-3,3,5-trifluoro-2,5-dimethyl-2,3,4,5-tetrahydropyridin-2-yl)-4-fluorophenyl)-3-methylisoxazole-5-carboxamide], the inhibition constant (Ki) on human BACE1 is 8200 nM.

For `Cc1ccc(C(=O)Nc2ccc(F)c([C@@]3(C)N=C(N)[C@](C)(F)CC3(F)F)c2)o1` [Compound 41, N-(3-((2R,5R)-6-amino-3,3,5-trifluoro-2,5-dimethyl-2,3,4,5-tetrahydropyridin-2-yl)-4-fluorophenyl)-5-methylfuran-2-carboxamide], the inhibitory constant (Ki) at human BACE1 is 520 nM.

With `Cc1ncc(C(=O)Nc2ccc(F)c([C@@]3(C)N=C(N)[C@](C)(F)CC3(F)F)c2)o1` [Compound 42, N-(3-((2R,5R)-6-amino-3,3,5-trifluoro-2,5-dimethyl-2,3,4,5-tetrahydropyridin-2-yl)-4-fluorophenyl)-2-methyloxazole-5-carboxamide trifluoroacetic acid salt], the Ki on human BACE1 was 1500 nM.

For `[2H]C([2H])([2H])Oc1ccc(C(=O)Nc2ccc(F)c([C@@]3(C)N=C(N)[C@](C)(F)CC3(F)F)c2)nc1` [Compound 43, N-(3-((2R,5R)-6-amino-3,3,5-trifluoro-2,5-dimethyl-2,3,4,5-tetrahydropyridin-2-yl)-4-fluorophenyl)-5-(methoxy-d3)picolinamide], at human BACE1, the Ki is 91 nM.

On to `C[C@@]1(F)CC(F)(F)[C@@](C)(c2cc(NC(=O)c3ccc(Cl)cc3)ccc2F)N=C1N` [Compound 44, N-(3-((2R,5R)-6-amino-3,3,5-trifluoro-2,5-dimethyl-2,3,4,5-tetrahydropyridin-2-yl)-4-fluorophenyl)-4-chlorobenzamide], for which the Ki at human BACE1 was 740 nM.

For `C[C@]1(F)CC(F)(F)[C@@](C)(c2cc(NC(=O)c3ccc(OC(F)F)cn3)ccc2F)N=C1N` [Compound 45, N-(3-((2R,5S)-6-amino-3,3,5-trifluoro-2,5-dimethyl-2,3,4,5-tetrahydropyridin-2-yl)-4-fluorophenyl)-5-(difluoromethoxy)picolinamide], the inhibition constant (Ki) on human BACE1 is 14 nM.

As to `COc1cnc(C(=O)Nc2ccc(F)c([C@@]3(C)N=C(N)[C@@](C)(F)CC3(F)F)c2)c(F)c1` [Compound 46, N-(3-((2R,5S)-6-amino-3,3,5-trifluoro-2,5-dimethyl-2,3,4,5-tetrahydropyridin-2-yl)-4-fluorophenyl)-3-fluoro-5-methoxypicolinamide], on human BACE1, the Ki was 14 nM.

Regarding `Cc1nc(C(=O)Nc2ccc(F)c([C@@]3(C)N=C(N)[C@@](C)(F)CC3(F)F)c2)c(C)o1` [Compound 47, N-(3-((2R,5S)-6-amino-3,3,5-trifluoro-2,5-dimethyl-2,3,4,5-tetrahydropyridin-2-yl)-4 fluorophenyl)-2,5-dimethyloxazole-4-carboxamide], the Ki at human BACE1 was 65 nM.

For `[2H]C([2H])([2H])Oc1ccc(C(=O)Nc2ccc(F)c([C@@]3(C)N=C(N)[C@@](C)(F)CC3(F)F)c2)nc1` [Compound 48], the Ki on human BACE1 was 14 nM.

Consider `Cc1cc(F)cnc1C(=O)Nc1ccc(F)c([C@@]2(C)N=C(N)[C@@](C)(F)CC2(F)F)c1` [Compound 49, N-(3-((2R,5S)-6-amino-3,3,5-trifluoro-2,5-dimethyl-2,3,4,5-tetrahydropyridin-2-yl)-4-fluorophenyl)-5-fluoro-3-methylpicolinamide], for which, at human BACE1, the Ki was 60 nM.

Broadly, the Ki is the dissociation constant of the complex between target and ligand, obtained from inhibition or displacement.
